Results taken from article PMC8550792, “Evolution of kinase polypharmacology across HSP90 drug discovery” (Cell Chemical Biology, 2021).

Experiments:
Test in all cases: biochemical
Type in all cases: biochemical
[1] = molecular target: T1, 382 unique human kinases (Homo sapiens, UniProt Q6P5Z2); details: kinase PKN3/PRK3, compound 10 uM; for remaining activity at 10 µM: read-out: % Enzyme Activity (relative to DMSO controls)
T1 construct: purchased Reaction Biology (HotSpot contract assay)

[2] = molecular target: T2, 382 unique human kinases (Homo sapiens, UniProt Q6XUX3); details: RIPK5, 10 uM; for remaining activity at 10 µM: read-out: % Enzyme Activity (relative to DMSO controls)
T2 construct: purchased Reaction Biology (HotSpot contract assay)
T2 sequence (Q6XUX3 1-929): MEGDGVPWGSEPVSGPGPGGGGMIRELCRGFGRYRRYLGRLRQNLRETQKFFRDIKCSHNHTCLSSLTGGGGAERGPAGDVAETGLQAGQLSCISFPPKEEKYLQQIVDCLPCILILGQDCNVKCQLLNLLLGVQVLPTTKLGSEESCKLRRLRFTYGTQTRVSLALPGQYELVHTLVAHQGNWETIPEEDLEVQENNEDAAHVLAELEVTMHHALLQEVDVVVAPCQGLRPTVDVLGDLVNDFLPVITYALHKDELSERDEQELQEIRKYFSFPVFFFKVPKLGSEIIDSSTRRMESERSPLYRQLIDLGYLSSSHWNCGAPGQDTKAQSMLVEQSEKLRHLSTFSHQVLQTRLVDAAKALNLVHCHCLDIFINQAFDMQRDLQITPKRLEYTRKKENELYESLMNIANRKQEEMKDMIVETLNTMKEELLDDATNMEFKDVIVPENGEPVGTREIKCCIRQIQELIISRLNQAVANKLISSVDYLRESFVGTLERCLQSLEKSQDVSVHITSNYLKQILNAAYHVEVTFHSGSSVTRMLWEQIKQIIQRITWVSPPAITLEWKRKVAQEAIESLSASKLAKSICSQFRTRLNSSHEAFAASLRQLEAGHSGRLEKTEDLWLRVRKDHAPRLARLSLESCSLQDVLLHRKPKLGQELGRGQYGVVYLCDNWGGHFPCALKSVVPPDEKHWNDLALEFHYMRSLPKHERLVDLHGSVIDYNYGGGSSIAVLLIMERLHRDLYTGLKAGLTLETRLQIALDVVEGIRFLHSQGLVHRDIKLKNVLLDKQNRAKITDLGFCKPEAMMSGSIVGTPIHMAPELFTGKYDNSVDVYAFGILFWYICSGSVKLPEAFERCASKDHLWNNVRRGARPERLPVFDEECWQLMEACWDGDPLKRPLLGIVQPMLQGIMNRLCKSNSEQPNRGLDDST

[3] = molecular target: T3, 382 unique human kinases (Homo sapiens, UniProt P29320); details: EPHA3, 10 uM; for remaining activity at 10 µM: read-out: % Enzyme Activity (relative to DMSO controls)
T3 construct: purchased Reaction Biology (HotSpot contract assay)
T3 sequence (P29320 21-983): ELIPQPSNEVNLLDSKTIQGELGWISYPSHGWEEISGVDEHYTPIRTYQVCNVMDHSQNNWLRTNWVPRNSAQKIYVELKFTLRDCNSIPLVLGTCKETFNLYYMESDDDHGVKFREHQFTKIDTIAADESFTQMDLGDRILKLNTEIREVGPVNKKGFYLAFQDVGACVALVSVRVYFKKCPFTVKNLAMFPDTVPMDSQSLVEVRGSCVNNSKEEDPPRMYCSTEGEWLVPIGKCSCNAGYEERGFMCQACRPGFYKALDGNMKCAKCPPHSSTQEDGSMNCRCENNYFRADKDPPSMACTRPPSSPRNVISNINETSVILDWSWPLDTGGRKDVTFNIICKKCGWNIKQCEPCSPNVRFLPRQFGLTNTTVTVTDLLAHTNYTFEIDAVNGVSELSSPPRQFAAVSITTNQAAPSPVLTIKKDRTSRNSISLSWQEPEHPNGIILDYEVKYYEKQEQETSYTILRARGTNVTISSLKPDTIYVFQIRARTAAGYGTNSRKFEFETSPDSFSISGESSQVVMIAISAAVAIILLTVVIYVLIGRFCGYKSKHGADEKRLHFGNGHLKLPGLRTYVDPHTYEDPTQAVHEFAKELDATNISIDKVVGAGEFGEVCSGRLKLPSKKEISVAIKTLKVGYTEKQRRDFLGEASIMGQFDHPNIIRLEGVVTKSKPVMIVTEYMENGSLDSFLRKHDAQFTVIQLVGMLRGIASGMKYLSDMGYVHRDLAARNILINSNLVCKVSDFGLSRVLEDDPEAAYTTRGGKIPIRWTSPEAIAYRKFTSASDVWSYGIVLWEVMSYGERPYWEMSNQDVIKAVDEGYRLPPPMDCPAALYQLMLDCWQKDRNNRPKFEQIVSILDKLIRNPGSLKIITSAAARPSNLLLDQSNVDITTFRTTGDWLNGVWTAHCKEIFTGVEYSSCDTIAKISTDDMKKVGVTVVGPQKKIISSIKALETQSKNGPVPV

[4] = molecular target: T4, 382 unique human kinases (Homo sapiens, UniProt P37173); details: kinase TGFBR2, compound 10 uM; for remaining activity at 10 µM: read-out: % Enzyme Activity (relative to DMSO controls)
T4 construct: purchased Reaction Biology (HotSpot contract assay)
T4 sequence (P37173 23-567): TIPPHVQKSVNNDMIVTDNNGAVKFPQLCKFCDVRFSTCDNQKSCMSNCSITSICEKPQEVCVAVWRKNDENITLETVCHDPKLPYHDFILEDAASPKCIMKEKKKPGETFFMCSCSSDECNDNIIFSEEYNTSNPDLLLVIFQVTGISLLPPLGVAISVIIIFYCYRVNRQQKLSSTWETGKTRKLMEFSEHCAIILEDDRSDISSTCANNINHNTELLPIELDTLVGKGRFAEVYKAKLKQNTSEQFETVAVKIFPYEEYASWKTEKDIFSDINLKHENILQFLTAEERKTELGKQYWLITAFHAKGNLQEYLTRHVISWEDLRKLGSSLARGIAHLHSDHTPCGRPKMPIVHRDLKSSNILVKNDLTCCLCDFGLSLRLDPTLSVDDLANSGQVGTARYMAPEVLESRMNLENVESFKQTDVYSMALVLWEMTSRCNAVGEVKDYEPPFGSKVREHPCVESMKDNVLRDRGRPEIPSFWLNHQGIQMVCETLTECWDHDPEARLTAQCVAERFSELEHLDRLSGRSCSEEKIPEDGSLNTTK

[5] = molecular target: T5, 382 unique human kinases (Homo sapiens, UniProt Q9Y3S1); details: WNK2, 10 uM; for remaining activity at 10 µM: read-out: % Enzyme Activity (relative to DMSO controls)
T5 construct: purchased Reaction Biology (HotSpot contract assay)
T5 sequence (Q9Y3S1 whole entry): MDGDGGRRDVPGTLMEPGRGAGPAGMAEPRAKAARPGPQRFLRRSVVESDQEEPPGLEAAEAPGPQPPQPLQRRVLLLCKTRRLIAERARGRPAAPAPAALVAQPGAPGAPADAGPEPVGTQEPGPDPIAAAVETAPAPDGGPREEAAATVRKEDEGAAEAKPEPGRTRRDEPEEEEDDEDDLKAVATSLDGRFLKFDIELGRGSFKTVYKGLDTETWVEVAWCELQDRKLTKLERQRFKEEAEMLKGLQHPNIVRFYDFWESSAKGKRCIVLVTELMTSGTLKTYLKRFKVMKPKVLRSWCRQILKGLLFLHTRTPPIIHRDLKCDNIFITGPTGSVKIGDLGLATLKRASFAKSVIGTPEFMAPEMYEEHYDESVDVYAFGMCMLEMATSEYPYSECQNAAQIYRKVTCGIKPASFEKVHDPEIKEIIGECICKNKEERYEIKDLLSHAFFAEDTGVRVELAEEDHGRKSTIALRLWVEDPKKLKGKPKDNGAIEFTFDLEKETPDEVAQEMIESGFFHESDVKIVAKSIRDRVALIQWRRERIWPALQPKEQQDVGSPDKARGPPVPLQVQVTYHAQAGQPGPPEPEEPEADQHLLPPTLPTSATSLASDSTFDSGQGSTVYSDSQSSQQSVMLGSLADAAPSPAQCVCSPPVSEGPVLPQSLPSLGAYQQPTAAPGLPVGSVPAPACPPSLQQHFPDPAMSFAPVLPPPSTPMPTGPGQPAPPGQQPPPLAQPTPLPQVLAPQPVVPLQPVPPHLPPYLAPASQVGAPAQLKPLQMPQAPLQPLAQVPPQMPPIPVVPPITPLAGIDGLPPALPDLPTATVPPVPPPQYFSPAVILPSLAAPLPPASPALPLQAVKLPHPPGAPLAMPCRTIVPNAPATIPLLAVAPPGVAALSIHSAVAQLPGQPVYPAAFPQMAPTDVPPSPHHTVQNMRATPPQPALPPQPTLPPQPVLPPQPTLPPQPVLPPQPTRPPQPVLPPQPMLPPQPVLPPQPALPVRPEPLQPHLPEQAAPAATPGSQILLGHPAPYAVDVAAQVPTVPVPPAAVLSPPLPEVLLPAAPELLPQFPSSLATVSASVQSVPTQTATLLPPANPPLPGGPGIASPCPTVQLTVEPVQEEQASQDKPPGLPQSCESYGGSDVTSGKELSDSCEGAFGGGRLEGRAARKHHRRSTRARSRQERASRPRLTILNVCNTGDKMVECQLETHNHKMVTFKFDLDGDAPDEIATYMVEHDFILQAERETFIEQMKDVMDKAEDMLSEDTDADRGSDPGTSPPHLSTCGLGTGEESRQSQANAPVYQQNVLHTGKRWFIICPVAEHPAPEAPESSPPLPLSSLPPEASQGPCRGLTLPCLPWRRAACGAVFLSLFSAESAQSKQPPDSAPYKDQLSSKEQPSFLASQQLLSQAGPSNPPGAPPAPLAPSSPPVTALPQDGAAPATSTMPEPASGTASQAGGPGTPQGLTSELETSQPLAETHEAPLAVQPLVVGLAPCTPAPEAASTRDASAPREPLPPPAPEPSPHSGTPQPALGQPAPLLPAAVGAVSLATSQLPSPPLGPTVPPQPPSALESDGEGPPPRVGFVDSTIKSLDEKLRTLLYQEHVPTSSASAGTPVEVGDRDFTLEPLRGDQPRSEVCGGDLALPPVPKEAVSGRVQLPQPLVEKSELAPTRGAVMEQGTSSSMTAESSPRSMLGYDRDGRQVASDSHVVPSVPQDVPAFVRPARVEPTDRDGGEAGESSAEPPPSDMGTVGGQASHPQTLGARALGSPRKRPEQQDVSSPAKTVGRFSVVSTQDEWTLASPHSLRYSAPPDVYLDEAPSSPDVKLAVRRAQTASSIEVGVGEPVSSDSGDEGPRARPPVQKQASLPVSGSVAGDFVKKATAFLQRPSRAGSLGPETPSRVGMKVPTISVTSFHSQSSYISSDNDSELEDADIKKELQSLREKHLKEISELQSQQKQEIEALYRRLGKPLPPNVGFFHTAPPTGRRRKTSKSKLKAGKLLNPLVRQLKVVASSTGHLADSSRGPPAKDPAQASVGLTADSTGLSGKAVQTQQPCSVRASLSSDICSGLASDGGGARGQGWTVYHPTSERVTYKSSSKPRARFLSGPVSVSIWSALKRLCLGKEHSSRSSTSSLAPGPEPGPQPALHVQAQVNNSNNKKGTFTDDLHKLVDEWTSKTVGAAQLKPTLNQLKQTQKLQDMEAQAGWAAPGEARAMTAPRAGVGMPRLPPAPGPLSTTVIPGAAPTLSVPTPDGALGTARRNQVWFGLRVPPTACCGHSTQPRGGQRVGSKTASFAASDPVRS

[6] = molecular target: T6, 382 unique human kinases (Homo sapiens, UniProt P07949, V778I); details: RET (V778I), [ATP] 10 µM, compound 10 uM; for remaining activity at 10 µM: read-out: % Enzyme Activity (relative to DMSO controls)
T6 construct: purchased Reaction Biology (HotSpot contract assay)
T6 sequence (P07949 29-1114 V778I): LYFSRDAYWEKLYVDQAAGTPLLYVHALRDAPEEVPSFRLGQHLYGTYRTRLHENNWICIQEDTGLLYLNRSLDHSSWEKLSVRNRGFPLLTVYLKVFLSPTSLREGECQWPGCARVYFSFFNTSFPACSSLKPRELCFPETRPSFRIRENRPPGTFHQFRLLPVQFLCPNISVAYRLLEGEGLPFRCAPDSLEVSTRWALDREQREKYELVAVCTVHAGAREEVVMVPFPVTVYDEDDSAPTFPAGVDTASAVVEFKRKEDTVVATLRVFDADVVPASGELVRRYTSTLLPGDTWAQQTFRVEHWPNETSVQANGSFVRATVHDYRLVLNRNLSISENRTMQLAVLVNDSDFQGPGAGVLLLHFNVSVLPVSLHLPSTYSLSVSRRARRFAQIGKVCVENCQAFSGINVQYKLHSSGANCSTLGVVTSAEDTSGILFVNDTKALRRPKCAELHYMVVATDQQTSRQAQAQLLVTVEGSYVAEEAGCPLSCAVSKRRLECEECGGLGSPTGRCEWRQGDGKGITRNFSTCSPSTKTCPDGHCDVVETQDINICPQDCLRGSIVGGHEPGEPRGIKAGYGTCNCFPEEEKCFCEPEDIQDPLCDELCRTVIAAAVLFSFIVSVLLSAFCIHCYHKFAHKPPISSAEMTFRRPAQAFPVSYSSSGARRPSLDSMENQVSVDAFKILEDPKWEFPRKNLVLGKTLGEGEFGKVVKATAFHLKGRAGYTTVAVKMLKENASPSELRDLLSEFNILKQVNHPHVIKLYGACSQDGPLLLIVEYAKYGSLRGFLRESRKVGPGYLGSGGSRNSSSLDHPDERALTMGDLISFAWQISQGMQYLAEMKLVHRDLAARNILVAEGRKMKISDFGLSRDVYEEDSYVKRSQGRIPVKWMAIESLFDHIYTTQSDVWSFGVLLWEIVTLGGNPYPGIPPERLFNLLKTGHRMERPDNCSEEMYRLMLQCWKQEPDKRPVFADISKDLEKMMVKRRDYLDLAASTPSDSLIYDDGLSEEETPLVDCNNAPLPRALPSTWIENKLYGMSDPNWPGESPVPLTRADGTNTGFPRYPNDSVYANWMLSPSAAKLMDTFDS

[7] = molecular target: T7, 382 unique human kinases (Homo sapiens, UniProt P10721, V559D); details: c-Kit (V559D), [ATP] 20 µM, compound 10 uM; for remaining activity at 10 µM: read-out: % Enzyme Activity (relative to DMSO controls)
T7 construct: purchased Reaction Biology (HotSpot contract assay)

T1 sequence (Q6P5Z2 whole entry): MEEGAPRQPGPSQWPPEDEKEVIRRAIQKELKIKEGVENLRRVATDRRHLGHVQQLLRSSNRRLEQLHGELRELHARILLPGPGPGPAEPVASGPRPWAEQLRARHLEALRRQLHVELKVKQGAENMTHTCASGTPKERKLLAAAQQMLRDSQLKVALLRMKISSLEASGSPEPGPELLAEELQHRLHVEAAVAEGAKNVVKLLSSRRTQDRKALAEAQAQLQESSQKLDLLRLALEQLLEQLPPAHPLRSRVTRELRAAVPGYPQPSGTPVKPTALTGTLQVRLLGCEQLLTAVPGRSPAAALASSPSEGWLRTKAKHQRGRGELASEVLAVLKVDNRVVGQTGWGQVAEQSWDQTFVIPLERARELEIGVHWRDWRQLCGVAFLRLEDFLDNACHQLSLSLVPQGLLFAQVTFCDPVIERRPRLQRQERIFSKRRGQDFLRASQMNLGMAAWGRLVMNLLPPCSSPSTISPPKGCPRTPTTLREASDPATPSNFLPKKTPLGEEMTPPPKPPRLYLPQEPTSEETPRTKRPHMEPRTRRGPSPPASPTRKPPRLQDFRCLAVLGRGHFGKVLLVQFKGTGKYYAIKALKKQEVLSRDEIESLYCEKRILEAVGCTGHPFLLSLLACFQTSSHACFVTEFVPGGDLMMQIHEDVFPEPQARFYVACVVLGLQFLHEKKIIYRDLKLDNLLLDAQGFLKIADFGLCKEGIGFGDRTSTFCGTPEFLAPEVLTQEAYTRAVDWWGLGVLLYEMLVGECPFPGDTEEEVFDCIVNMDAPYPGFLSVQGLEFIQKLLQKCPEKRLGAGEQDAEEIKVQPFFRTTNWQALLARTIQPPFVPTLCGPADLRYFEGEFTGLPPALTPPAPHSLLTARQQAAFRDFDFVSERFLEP

Row | Compound | remaining activity at 10 µM [1] | remaining activity at 10 µM [2] | remaining activity at 10 µM [3] | remaining activity at 10 µM [4] | remaining activity at 10 µM [5] | remaining activity at 10 µM [6] | remaining activity at 10 µM [7] | % Enzyme Activity (relative to DMSO controls) [1] | % Enzyme Activity (relative to DMSO controls) [2] | % Enzyme Activity (relative to DMSO controls) [3] | % Enzyme Activity (relative to DMSO controls) [4] | % Enzyme Activity (relative to DMSO controls) [5] | % Enzyme Activity (relative to DMSO controls) [6] | % Enzyme Activity (relative to DMSO controls) [7]
1 | CC(C)c1cc(-c2n[nH]c(=O)n2-c2ccc3c(ccn3C)c2)c(O)cc1O [Ganetespib (STA9090)] | 83.9% | 95.4% | 73.7% | 92.9% | 59.5% |  |  |  |  |  |  |  |  | 
2 | CC(C)c1cc(-c2n[nH]c(=O)n2-c2ccc3c(ccn3C)c2)c(O)cc1O [Ganetespib] |  |  |  |  |  | 56.4% | 40.7% |  |  |  |  |  |  | 
3 | CCNC(=O)c1noc(-c2cc(C(C)C)c(O)cc2O)c1-c1ccc(CN2CCOCC2)cc1 [Luminespib (AUY-922)] | 104% | 79.8% | 104% | 129% | 107% |  |  | 102.60% | 77.60% | 100.00% | 124.56% | 106.80% |  | 
4 | CCNC(=O)c1noc(-c2cc(C(C)C)c(O)cc2O)c1-c1ccc(CN2CCOCC2)cc1 [Luminespib] |  |  |  |  |  | 111% | 69.6% |  |  |  |  |  | 105.36% | 69.57%
